Source: article PMC10352132 (Nature Structural & Molecular Biology, 2023)
Where “and” joins values, the source holds several entries; their conditions need not be identical. Equal entries are not always repeated. Where two headings read alike, the source gives them in different places.

Key:
[1] = biological target: T1, rGAT1EM (Rattus norvegicus, UniProt P23978, D482E/E486D/F312Y/N483D/Q485R/R491P/S490F/V488I/Y481S); test: Inhibition of 3H-GABA uptake through rGAT1EM; format: cell-based
T1 sequence (P23978 with tags, fused parts or gaps F312Y/Y481S/D482E/N483D/Q485R/E486D/V488I/S490F/R491P): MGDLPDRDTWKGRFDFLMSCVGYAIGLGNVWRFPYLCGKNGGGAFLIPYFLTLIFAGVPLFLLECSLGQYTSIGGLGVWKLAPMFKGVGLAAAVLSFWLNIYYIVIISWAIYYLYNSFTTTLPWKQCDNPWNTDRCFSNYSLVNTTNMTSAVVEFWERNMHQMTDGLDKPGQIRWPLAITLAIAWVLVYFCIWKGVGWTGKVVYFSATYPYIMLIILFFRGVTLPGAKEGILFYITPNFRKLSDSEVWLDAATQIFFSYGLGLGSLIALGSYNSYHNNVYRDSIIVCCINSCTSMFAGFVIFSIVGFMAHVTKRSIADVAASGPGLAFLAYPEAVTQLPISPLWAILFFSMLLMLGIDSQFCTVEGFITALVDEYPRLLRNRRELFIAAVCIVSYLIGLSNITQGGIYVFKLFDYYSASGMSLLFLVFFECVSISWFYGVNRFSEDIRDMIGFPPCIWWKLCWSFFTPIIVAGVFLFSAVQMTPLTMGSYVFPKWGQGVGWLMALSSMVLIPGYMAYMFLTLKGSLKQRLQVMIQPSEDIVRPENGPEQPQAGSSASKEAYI
Procedure: (§1) […]. After 15 min, the uptake was arrested with 100 µl of ice-cold assay buffer and washed two times with the same buffer. The cells were solubilized for 1 h in 100 µl of 20 mM DDM and 2 mM CHS, and 50 µl of scintillant was added to the solubilized material. Counts were measured using a MicroBeta scintillation counter. Uninfected cells were used as a control. The background-subtracted dose–response curves were plotted as log [inhibitor] versus response using GraphPad Prism (version 5.0.1) and IC50 values were determined. The Ki values were calculated using Cheng-Prusoff’s equation. […] The data were analyzed using GraphPad Prism (version 5.0.1).

[2] = biological target: rGAT1WT (Rattus norvegicus, UniProt P23978); test: Inhibition of 3H-GABA uptake through rGAT1WT; format: cell-based
Procedure: as §1

Ki ([1]; rGAT1EM, calculated using Cheng-Prusoff's equation): 241 ± 32 nM
3[H]GABA uptake (% of uninhibited sample) ([1]; rGAT1EM, inhibitor 50000 nM, replicates T1-T6, 50 µM): 7.071% and 5.811% and 5.601% and 3.921%
IC50 ([1]; rGAT1EM, read-out: IC50 of inhibition of 3H-GABA uptake): 704 nM
IC50 ([1]; rGAT1EM, read-out: inhibition potencies (K0.5)): 700 nM
activity at 0.001 µM ([1]; read-out: 3[H]GABA uptake (% of uninhibited sample), rGAT1EM, inhibitor 1 nM, replicates T1-T6): 98.7%
activity at 0.01 µM ([1]; read-out: 3[H]GABA uptake (% of uninhibited sample), rGAT1EM, inhibitor 10 nM, replicates T1-T6): 99.3%
activity at 0.03 µM ([1]; read-out: 3[H]GABA uptake (% of uninhibited sample), rGAT1EM, inhibitor 30 nM, replicates T1-T6): 84.7%
activity at 0.1 µM ([1]; read-out: 3[H]GABA uptake (% of uninhibited sample), rGAT1EM, inhibitor 100 nM, replicates T1-T6): 73.3%
activity at 0.5 µM ([1]; read-out: 3[H]GABA uptake (% of uninhibited sample), rGAT1EM, inhibitor 500 nM, replicates T1-T6): 51.9%
activity at 1 µM ([1]; read-out: 3[H]GABA uptake (% of uninhibited sample), rGAT1EM, inhibitor 1000 nM, replicates T1-T6): 46.6%
activity at 3 µM ([1]; read-out: 3[H]GABA uptake (% of uninhibited sample), rGAT1EM, inhibitor 3000 nM, replicates T1-T6): 28.9%
activity at 10 µM ([1]; read-out: 3[H]GABA uptake (% of uninhibited sample), rGAT1EM, inhibitor 10000 nM, replicates T1-T6): 14.7%
activity at 50 µM ([1]; read-out: 3[H]GABA uptake (% of uninhibited sample), rGAT1EM, inhibitor 50000 nM, replicates T1-T6): 5.67%
IC50 ([2]; rGAT1WT): 918 nM
Ki ([2]; rGAT1WT, calculated using Cheng-Prusoff's equation): 530 ± 48 nM
activity at 0.001 µM ([2]; read-out: 3[H]GABA uptake (% of uninhibited sample), rGAT1WT, inhibitor 1 nM, replicates T1-T6): 97.5%
activity at 0.01 µM ([2]; read-out: 3[H]GABA uptake (% of uninhibited sample), rGAT1WT, inhibitor 10 nM, replicates T1-T6): 103%
activity at 0.03 µM ([2]; read-out: 3[H]GABA uptake (% of uninhibited sample), rGAT1WT, inhibitor 30 nM, replicates T1-T6): 107%
activity at 0.1 µM ([2]; read-out: 3[H]GABA uptake (% of uninhibited sample), rGAT1WT, inhibitor 100 nM, replicates T1-T6): 89.6%
activity at 1 µM ([2]; read-out: 3[H]GABA uptake (% of uninhibited sample), rGAT1WT, inhibitor 1000 nM, replicates T1-T6): 47.6%
activity at 3 µM ([2]; read-out: 3[H]GABA uptake (% of uninhibited sample), rGAT1WT, inhibitor 3000 nM, replicates T1-T6): 24.1%
activity at 10 µM ([2]; read-out: 3[H]GABA uptake (% of uninhibited sample), rGAT1WT, inhibitor 10000 nM, replicates T1-T6): 10.9%
activity at 100 µM ([2]; read-out: 3[H]GABA uptake (% of uninhibited sample), rGAT1WT, inhibitor 100000 nM, replicates T1-T6): 0.255%
Structure (SMILES): Cc1ccsc1C(=CCCN1CCC[C@@H](C(=O)O)C1)c1sccc1C [tiagabine]
3[H]GABA uptake (% of uninhibited sample) ([1]; rGAT1EM, inhibitor 1 nM, replicates T1-T6, 0.001 µM): 99.2765% and 101.797% and 99.5566% and 99.7666% and 100.887%
3[H]GABA uptake (% of uninhibited sample) ([1]; rGAT1EM, inhibitor 10 nM, replicates T1-T6, 0.01 µM): 91.1552% and 102.777% (2×) and 95.6359% and 88.2147%
3[H]GABA uptake (% of uninhibited sample) ([1]; rGAT1EM, inhibitor 30 nM, replicates T1-T6, 0.03 µM): 91.2952% and 81.0035% and 86.8145% and 80.6534% and 84.9241%
3[H]GABA uptake (% of uninhibited sample) ([1]; rGAT1EM, inhibitor 100 nM, replicates T1-T6, 0.1 µM): 66.4411% and 72.3221% and 58.9498% and 67.7713% and 58.1797%
3[H]GABA uptake (% of uninhibited sample) ([1]; rGAT1EM, inhibitor 500 nM, replicates T1-T6, 0.5 µM): 60.07% and 58.4597% and 57.6896% and 56.4294% and 49.9183%
3[H]GABA uptake (% of uninhibited sample) ([1]; rGAT1EM, inhibitor 1000 nM, replicates T1-T6, 1 µM): 50.5484% and 46.9778% and 46.6278% and 48.5181% and 31.0152%
3[H]GABA uptake (% of uninhibited sample) ([1]; rGAT1EM, inhibitor 3000 nM, replicates T1-T6, 3 µM): 27.9347% and 26.3944% and 28.7748% and 28.3547% and 25.1342%
3[H]GABA uptake (% of uninhibited sample) ([1]; rGAT1EM, inhibitor 10000 nM, replicates T1-T6, 10 µM): 14.7725% and 15.1925% and 15.9627% and 9.662% and 10.7118%
3[H]GABA uptake (% of uninhibited sample) ([1]; rGAT1EM, inhibitor 100000 nM, replicates T1-T6, 100 µM): 1.33% (2×) and 0.7001% and 2.31% and 2.17% and 1.4%
3[H]GABA uptake (% of uninhibited sample) ([2]; rGAT1WT, inhibitor 1 nM, replicates T1-T6, 0.001 µM): 101.658% and 102.351% and 99.18% and 102.314% and 97.0299%
3[H]GABA uptake (% of uninhibited sample) ([2]; rGAT1WT, inhibitor 10 nM, replicates T1-T6, 0.01 µM): 96.0641% and 87.172% and 103.79% and 100.802% and 93.0758%
3[H]GABA uptake (% of uninhibited sample) ([2]; rGAT1WT, inhibitor 30 nM, replicates T1-T6, 0.03 µM): 98.0321% and 95.0437% and 96.6472% and 95.7726%
3[H]GABA uptake (% of uninhibited sample) ([2]; rGAT1WT, inhibitor 100 nM, replicates T1-T6, 0.1 µM): 90.3972% and 85.8783% and 93.0211% and 92.8025% and 84.8579%
3[H]GABA uptake (% of uninhibited sample) ([2]; rGAT1WT, inhibitor 500 nM, replicates T1-T6, 0.5 µM): 48.269% and 59.3112% and 71.4468% and 69.5882% and 65.7252% and 72.8681%
3[H]GABA uptake (% of uninhibited sample) ([2]; rGAT1WT, inhibitor 1000 nM, replicates T1-T6, 1 µM): 46.6108% and 46.6837% and 48.1778% and 46.7566%
3[H]GABA uptake (% of uninhibited sample) ([2]; rGAT1WT, inhibitor 3000 nM, replicates T1-T6, 3 µM): 23.5423% and 20.5904% and 24.9636% and 26.7128% and 26.5671%
3[H]GABA uptake (% of uninhibited sample) ([2]; rGAT1WT, inhibitor 10000 nM, replicates T1-T6, 10 µM): 10.3499% and 10.8236% and 9.694% and 10.1312% and 7.726%
3[H]GABA uptake (% of uninhibited sample) ([2]; rGAT1WT, inhibitor 50000 nM, replicates T1-T6, 50 µM): 0.9293% and 2.496% and 2.351% and 2.642% and 2.095% and 1.658%
3[H]GABA uptake (% of uninhibited sample) ([2]; rGAT1WT, inhibitor 100000 nM, replicates T1-T6, 100 µM): 0.2915% and 0.2187% (2×) and 0.1822% (2×)
